Data: PubChem BioAssay (NCI)
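Tested at 5 concentrations; 48 h exposure; 96-well plates; endpoints linearly interpolated, else capped at highest concentration. GI50 is the concentration that inhibits growth by half. Definition used: TGI = concentration required for complete inhibition of growth.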

Experiments:
Assay in all cases: NCI tumour cell line growth inhibition, 48 h
HCT-116 colon = system: HCT-116 colon
NCI-H23 lung = system: NCI-H23 lung
HT29 colon = system: HT29 colon
MALME-3M melanoma = system: MALME-3M melanoma
NCI-H226 lung = system: NCI-H226 lung
K-562 leukemia = system: K-562 leukemia
SNB-19 CNS = system: SNB-19 CNS
EKVX NSCLC = system: EKVX NSCLC
HS 578T breast = system: HS 578T breast
A549 NSCLC = system: A549 NSCLC
SF-268 CNS = system: SF-268 CNS
UACC-62 melanoma = system: UACC-62 melanoma
MOLT-4 leukemia = system: MOLT-4 leukemia
HCC-2998 colon = system: HCC-2998 colon
A498 renal = system: A498 renal
SK-MEL-2 melanoma = system: SK-MEL-2 melanoma
SF-539 CNS = system: SF-539 CNS
CAKI-1 renal = system: CAKI-1 renal
HOP-92 NSCLC = system: HOP-92 NSCLC
TK-10 renal = system: TK-10 renal
OVCAR-8 ovarian = system: OVCAR-8 ovarian
SK-MEL-5 melanoma = system: SK-MEL-5 melanoma
LOX IMVI melanoma = system: LOX IMVI melanoma
HCT-15 colon = system: HCT-15 colon
OVCAR-4 ovarian = system: OVCAR-4 ovarian
SK-MEL-28 melanoma = system: SK-MEL-28 melanoma
KM12 colon = system: KM12 colon
SNB-75 CNS = system: SNB-75 CNS
CCRF-CEM leukemia = system: CCRF-CEM leukemia
T-47D breast = system: T-47D breast
OVCAR-3 ovarian = system: OVCAR-3 ovarian
NCI/ADR-RES ovarian = system: NCI/ADR-RES ovarian
NCI-H522 lung = system: NCI-H522 lung
MDA-MB-231 breast = system: MDA-MB-231 breast
UO-31 renal = system: UO-31 renal
COLO 205 colon = system: COLO 205 colon
M14 melanoma = system: M14 melanoma
MDA-MB-435 = system: MDA-MB-435
BT-549 breast = system: BT-549 breast
ACHN renal = system: ACHN renal
IGROV1 ovarian = system: IGROV1 ovarian
OVCAR-5 ovarian = system: OVCAR-5 ovarian
786-0 renal = system: 786-0 renal
DU-145 prostate = system: DU-145 prostate
SK-OV-3 ovarian = system: SK-OV-3 ovarian
UACC-257 melanoma = system: UACC-257 melanoma
RPMI-8226 leukemia = system: RPMI-8226 leukemia
SW-620 colon = system: SW-620 colon
NCI-H460 lung = system: NCI-H460 lung
HOP-62 NSCLC = system: HOP-62 NSCLC
U251 CNS = system: U251 CNS
HL-60(TB) leukemia = system: HL-60(TB) leukemia
MCF7 breast = system: MCF7 breast
SF-295 CNS = system: SF-295 CNS
SR leukemia = system: SR leukemia
SN12C renal = system: SN12C renal

## CCNC(=O)N1CCc2c(Cl)c3c(c(OC)c2[C@@H]1[C@H]1OCc2c1ccc(OC)c2OC)OCCO3
HCT-116 colon
  GI50: 3.46 µM
  TGI: > 100 µM
NCI-H23 lung
  GI50: 4.59 µM
  TGI: > 100 µM
HT29 colon
  GI50: 3.38 µM
  TGI: 25 µM
MALME-3M melanoma
  GI50: 6.27 µM
  TGI: > 100 µM
NCI-H226 lung
  GI50: 4.44 µM
  TGI: > 100 µM
K-562 leukemia
  GI50: 3.48 µM
  TGI: > 100 µM
SNB-19 CNS
  GI50: 4.36 µM
  TGI: > 100 µM
EKVX NSCLC
  GI50: 4.18 µM
  TGI: > 100 µM
HS 578T breast
  GI50: 2.57 µM
  TGI: 9.13 µM
A549 NSCLC
  GI50: 4.07 µM
  TGI: > 100 µM
SF-268 CNS
  GI50: 6.02 µM
  TGI: > 100 µM
UACC-62 melanoma
  GI50: 5.2 µM
  TGI: > 100 µM
MOLT-4 leukemia
  GI50: 4.95 µM
  TGI: > 100 µM
HCC-2998 colon
  GI50: 4.19 µM
  TGI: > 100 µM
A498 renal
  GI50: 2.6 µM
  TGI: 7.91 µM
SK-MEL-2 melanoma
  GI50: 6.01 µM
  TGI: > 100 µM
SF-539 CNS
  GI50: 2.35 µM
  TGI: 6.06 µM
CAKI-1 renal
  GI50: 4.2 µM
  TGI: > 100 µM
HOP-92 NSCLC
  GI50: 11.7 µM
  TGI: 90 µM
TK-10 renal
  GI50: 13.5 µM
  TGI: > 100 µM
OVCAR-8 ovarian
  GI50: 4.17 µM
  TGI: > 100 µM
SK-MEL-5 melanoma
  GI50: 4.59 µM
  TGI: 21.1 µM
LOX IMVI melanoma
  GI50: 4.64 µM
  TGI: 27.2 µM
HCT-15 colon
  GI50: 2.72 µM
  TGI: > 100 µM
OVCAR-4 ovarian
  GI50: 40.6 µM
  TGI: > 100 µM
SK-MEL-28 melanoma
  GI50: 16.5 µM
  TGI: > 100 µM
KM12 colon
  GI50: 3.07 µM
  TGI: 16.5 µM
SNB-75 CNS
  GI50: 2.2 µM
  TGI: 7.07 µM
CCRF-CEM leukemia
  GI50: 3.82 µM
  TGI: > 100 µM
T-47D breast
  GI50: 4.26 µM
  TGI: > 100 µM
OVCAR-3 ovarian
  GI50: 2.31 µM
  TGI: 5.37 µM
NCI/ADR-RES ovarian
  GI50: 3.28 µM
  TGI: > 100 µM
NCI-H522 lung
  GI50: 1.87 µM
  TGI: 6.66 µM
MDA-MB-231 breast
  GI50: 4.95 µM
  TGI: 42.3 µM
UO-31 renal
  GI50: 5.52 µM
  TGI: > 100 µM
COLO 205 colon
  GI50: 3.26 µM
  TGI: 10.9 µM
M14 melanoma
  GI50: 2.12 µM
  TGI: 5.39 µM
MDA-MB-435
  GI50: 1.16 µM
  TGI: 2.83 µM
BT-549 breast
  GI50: 6.84 µM
  TGI: > 100 µM
ACHN renal
  GI50: 6.5 µM
  TGI: > 100 µM
IGROV1 ovarian
  GI50: 3.6 µM
  TGI: > 100 µM
OVCAR-5 ovarian
  GI50: 3.93 µM
  TGI: > 100 µM
786-0 renal
  GI50: 4.24 µM
  TGI: > 100 µM
DU-145 prostate
  GI50: 4.2 µM
  TGI: > 100 µM
SK-OV-3 ovarian
  GI50: 4.58 µM
  TGI: > 100 µM
UACC-257 melanoma
  GI50: 9.63 µM
  TGI: > 100 µM
RPMI-8226 leukemia
  GI50: 4.41 µM
  TGI: > 100 µM
SW-620 colon
  GI50: 3.86 µM
  TGI: > 100 µM
NCI-H460 lung
  GI50: 3.47 µM
  TGI: 13.9 µM
HOP-62 NSCLC
  GI50: 3.69 µM
  TGI: > 100 µM
U251 CNS
  GI50: 3.75 µM
  TGI: 37.5 µM
HL-60(TB) leukemia
  GI50: 2.49 µM
  TGI: 6.43 µM
MCF7 breast
  GI50: 2.72 µM
  TGI: > 100 µM
SF-295 CNS
  GI50: 1.86 µM
  TGI: 6.51 µM
SR leukemia
  GI50: 4.22 µM
  TGI: > 100 µM
SN12C renal
  GI50: 7.1 µM
  TGI: > 100 µM
